In patent US11542240B2, “STK19 inhibitors for treatment of cancer” (TRUSTEES OF BOSTON UNIVERSITY, priority 2018, dated 2023):
Where two headings read alike, the source gives them in different places.

Assays:
Experiment in all cases: biochemical
Format in all cases: binding
[1] = molecular target: panel of 468 diverse kinases (Homo sapiens, UniProt O15530); settings: PDPK1; 1000 nM; read-out: Percent Control
[2] = molecular target: panel of 468 diverse kinases (Homo sapiens, UniProt O43683); settings: BUB1; 1000 nM; read-out: Percent Control
[3] = molecular target: panel of 468 diverse kinases (Homo sapiens, UniProt O75460); settings: ERN1; 1000 nM; read-out: Percent Control
[4] = molecular target: panel of 468 diverse kinases (Homo sapiens, UniProt O75582); settings: 1000 nM, read-out: Percent Control
[5] = molecular target: panel of 468 diverse kinases (Homo sapiens, UniProt O76039); settings: CDKL5; 1000 nM; read-out: Percent Control
[6] = molecular target: panel of 468 diverse kinases (Homo sapiens, UniProt O94806); settings: PRKD3; 1000 nM; read-out: Percent Control
[7] = molecular target: panel of 468 diverse kinases (Homo sapiens, UniProt P00519, T315I); settings: 1000 nM, read-out: Percent Control
[8] = molecular target: panel of 468 diverse kinases (Homo sapiens, UniProt P00533); settings: EGFR; 1000 nM; read-out: Percent Control
[9] = molecular target: panel of 468 diverse kinases (Homo sapiens, UniProt P00533, L858R); settings: EGFR(L858R); 1000 nM; read-out: Percent Control
[10] = molecular target: panel of 468 diverse kinases (Homo sapiens, UniProt P08581); settings: MET; 1000 nM; read-out: Percent Control
[11] = molecular target: panel of 468 diverse kinases (Homo sapiens, UniProt P14616); settings: INSRR; 1000 nM; read-out: Percent Control
[12] = molecular target: panel of 468 diverse kinases (Homo sapiens, UniProt P17948); settings: FLT1; 1000 nM; read-out: Percent Control
[13] = molecular target: panel of 468 diverse kinases (Homo sapiens, UniProt P21709); settings: EPHA1; 1000 nM; read-out: Percent Control
[14] = molecular target: panel of 468 diverse kinases (Homo sapiens, UniProt P22607); settings: FGFR3; 1000 nM; read-out: Percent Control
[15] = molecular target: panel of 468 diverse kinases (Homo sapiens, UniProt P29317); settings: EPHA2; 1000 nM; read-out: Percent Control
[16] = molecular target: panel of 468 diverse kinases (Homo sapiens, UniProt P29320); settings: EPHA3; 1000 nM; read-out: Percent Control
[17] = molecular target: panel of 468 diverse kinases (Homo sapiens, UniProt P33981); settings: TTK; 1000 nM; read-out: Percent Control
[18] = molecular target: panel of 468 diverse kinases (Homo sapiens, UniProt P41240); settings: CSK; 1000 nM; read-out: Percent Control
[19] = molecular target: panel of 468 diverse kinases (Homo sapiens, UniProt P48736); settings: PIK3CG; 1000 nM; read-out: Percent Control
[20] = molecular target: panel of 468 diverse kinases (Homo sapiens, UniProt P51451); settings: BLK; 1000 nM; read-out: Percent Control
[21] = molecular target: panel of 468 diverse kinases (Homo sapiens, UniProt P78356); settings: PIP5K2B; 1000 nM; read-out: Percent Control
[22] = molecular target: panel of 468 diverse kinases (Homo sapiens, UniProt Q09013); settings: DMPK; 1000 nM; read-out: Percent Control
[23] = molecular target: panel of 468 diverse kinases (Homo sapiens, UniProt Q13153); settings: PAK1; 1000 nM; read-out: Percent Control
[24] = molecular target: panel of 468 diverse kinases (Homo sapiens, UniProt Q13705); settings: ACVR2B; 1000 nM; read-out: Percent Control
[25] = molecular target: panel of 468 diverse kinases (Homo sapiens, UniProt Q16832); settings: DDR2; 1000 nM; read-out: Percent Control
[26] = molecular target: panel of 468 diverse kinases (Homo sapiens, UniProt Q6XUX3); settings: RIPK5; 1000 nM; read-out: Percent Control
[27] = molecular target: panel of 468 diverse kinases (Homo sapiens, UniProt Q8N5S9); settings: CAMKK1; 1000 nM; read-out: Percent Control
[28] = molecular target: panel of 468 diverse kinases (Homo sapiens, UniProt Q96L34); settings: MARK4; 1000 nM; read-out: Percent Control
[29] = molecular target: panel of 468 diverse kinases (Homo sapiens, UniProt Q9HCP0); settings: CSNK1G1; 1000 nM; read-out: Percent Control
[30] = molecular target: panel of 468 diverse kinases (Homo sapiens, UniProt Q9UM73); settings: ALK; 1000 nM; read-out: Percent Control
[31] = molecular target: panel of 468 diverse kinases (Plasmodium falciparum, UniProt P62344); settings: read-out: Percent Control

Sequence of panel of 468 diverse kinases (Homo sapiens, UniProt P51451) (P51451 2-505 limits assumed): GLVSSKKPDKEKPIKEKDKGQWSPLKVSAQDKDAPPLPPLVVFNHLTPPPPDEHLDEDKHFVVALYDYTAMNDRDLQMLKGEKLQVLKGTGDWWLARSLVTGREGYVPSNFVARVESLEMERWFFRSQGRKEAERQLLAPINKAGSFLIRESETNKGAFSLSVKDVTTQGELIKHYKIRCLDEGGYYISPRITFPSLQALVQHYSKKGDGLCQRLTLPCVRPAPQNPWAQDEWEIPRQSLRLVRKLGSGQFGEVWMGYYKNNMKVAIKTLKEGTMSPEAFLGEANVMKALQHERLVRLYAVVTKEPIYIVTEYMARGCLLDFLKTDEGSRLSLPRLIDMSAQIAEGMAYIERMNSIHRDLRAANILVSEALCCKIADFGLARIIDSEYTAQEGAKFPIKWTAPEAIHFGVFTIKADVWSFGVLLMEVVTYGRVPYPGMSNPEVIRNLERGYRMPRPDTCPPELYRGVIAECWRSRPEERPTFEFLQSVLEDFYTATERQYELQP
Sequence of panel of 468 diverse kinases (Homo sapiens, UniProt P78356) (P78356 2-416 limits assumed): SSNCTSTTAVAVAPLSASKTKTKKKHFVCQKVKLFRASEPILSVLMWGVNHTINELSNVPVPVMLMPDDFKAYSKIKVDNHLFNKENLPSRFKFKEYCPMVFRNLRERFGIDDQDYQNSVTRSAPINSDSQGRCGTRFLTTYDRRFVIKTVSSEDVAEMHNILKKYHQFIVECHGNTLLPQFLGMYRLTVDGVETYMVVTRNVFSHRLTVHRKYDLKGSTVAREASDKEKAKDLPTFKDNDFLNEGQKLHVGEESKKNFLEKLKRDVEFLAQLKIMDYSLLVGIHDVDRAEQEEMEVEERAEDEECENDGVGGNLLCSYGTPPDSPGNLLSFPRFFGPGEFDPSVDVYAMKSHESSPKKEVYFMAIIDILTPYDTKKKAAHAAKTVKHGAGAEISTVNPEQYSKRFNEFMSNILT
Sequence of panel of 468 diverse kinases (Homo sapiens, UniProt P00533) (P00533 25-1210 limits assumed): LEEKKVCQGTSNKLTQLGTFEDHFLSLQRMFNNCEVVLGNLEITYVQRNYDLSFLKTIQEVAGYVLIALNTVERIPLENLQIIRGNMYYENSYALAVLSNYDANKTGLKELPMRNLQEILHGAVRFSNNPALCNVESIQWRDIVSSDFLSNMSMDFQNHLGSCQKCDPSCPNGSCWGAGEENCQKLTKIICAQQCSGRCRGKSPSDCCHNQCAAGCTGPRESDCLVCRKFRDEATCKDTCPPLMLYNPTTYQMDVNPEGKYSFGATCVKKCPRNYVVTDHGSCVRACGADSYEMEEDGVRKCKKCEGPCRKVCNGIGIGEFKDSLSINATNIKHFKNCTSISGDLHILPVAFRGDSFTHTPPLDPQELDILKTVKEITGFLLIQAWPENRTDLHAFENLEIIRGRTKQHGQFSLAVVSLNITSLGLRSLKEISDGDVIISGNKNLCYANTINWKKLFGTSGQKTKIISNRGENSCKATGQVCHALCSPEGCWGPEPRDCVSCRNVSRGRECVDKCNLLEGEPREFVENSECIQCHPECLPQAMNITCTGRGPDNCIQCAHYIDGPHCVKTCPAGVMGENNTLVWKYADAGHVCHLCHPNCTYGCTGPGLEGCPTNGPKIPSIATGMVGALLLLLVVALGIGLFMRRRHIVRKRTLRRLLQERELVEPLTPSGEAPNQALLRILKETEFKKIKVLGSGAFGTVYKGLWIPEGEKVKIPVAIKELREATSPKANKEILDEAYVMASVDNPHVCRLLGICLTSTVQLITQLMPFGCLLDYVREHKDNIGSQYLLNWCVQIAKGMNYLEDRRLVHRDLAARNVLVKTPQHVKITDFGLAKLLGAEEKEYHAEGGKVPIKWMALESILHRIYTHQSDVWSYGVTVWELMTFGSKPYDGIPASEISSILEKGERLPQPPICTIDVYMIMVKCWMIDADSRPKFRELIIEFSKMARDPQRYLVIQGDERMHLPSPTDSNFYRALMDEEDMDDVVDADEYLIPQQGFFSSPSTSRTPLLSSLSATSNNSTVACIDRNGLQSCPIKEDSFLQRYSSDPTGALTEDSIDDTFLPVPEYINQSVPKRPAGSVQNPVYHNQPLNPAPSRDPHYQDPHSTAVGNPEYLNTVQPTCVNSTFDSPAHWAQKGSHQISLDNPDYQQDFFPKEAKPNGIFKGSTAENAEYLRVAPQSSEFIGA
Sequence of panel of 468 diverse kinases (Homo sapiens, UniProt O75460) (O75460 19-977 limits assumed): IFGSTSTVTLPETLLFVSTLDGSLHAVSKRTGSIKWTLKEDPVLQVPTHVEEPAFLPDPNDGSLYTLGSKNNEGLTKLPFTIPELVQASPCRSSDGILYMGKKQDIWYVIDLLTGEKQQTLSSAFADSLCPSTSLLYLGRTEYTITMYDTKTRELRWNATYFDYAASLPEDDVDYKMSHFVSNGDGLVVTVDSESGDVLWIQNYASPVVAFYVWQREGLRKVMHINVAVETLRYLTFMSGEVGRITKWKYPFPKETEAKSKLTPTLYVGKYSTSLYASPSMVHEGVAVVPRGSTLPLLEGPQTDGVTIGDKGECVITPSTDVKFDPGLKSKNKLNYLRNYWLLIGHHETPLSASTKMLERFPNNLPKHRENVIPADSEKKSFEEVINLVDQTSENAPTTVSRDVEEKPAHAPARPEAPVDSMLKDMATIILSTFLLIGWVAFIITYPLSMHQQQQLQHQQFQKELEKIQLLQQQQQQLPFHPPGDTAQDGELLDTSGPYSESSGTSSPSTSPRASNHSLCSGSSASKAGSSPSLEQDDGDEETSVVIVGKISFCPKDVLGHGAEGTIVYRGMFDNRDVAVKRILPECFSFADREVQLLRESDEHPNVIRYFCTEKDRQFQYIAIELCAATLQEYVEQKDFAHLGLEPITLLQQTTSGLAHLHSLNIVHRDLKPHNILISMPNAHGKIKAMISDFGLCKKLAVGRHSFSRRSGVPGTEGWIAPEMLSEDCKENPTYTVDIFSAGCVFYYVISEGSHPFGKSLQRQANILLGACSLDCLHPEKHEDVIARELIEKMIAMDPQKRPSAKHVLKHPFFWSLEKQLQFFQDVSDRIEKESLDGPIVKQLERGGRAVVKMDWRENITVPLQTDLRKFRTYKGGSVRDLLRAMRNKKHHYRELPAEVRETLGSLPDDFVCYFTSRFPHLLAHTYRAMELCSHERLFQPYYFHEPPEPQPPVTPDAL
Sequence of panel of 468 diverse kinases (Homo sapiens, UniProt P08581) (P08581 25-1390 limits assumed): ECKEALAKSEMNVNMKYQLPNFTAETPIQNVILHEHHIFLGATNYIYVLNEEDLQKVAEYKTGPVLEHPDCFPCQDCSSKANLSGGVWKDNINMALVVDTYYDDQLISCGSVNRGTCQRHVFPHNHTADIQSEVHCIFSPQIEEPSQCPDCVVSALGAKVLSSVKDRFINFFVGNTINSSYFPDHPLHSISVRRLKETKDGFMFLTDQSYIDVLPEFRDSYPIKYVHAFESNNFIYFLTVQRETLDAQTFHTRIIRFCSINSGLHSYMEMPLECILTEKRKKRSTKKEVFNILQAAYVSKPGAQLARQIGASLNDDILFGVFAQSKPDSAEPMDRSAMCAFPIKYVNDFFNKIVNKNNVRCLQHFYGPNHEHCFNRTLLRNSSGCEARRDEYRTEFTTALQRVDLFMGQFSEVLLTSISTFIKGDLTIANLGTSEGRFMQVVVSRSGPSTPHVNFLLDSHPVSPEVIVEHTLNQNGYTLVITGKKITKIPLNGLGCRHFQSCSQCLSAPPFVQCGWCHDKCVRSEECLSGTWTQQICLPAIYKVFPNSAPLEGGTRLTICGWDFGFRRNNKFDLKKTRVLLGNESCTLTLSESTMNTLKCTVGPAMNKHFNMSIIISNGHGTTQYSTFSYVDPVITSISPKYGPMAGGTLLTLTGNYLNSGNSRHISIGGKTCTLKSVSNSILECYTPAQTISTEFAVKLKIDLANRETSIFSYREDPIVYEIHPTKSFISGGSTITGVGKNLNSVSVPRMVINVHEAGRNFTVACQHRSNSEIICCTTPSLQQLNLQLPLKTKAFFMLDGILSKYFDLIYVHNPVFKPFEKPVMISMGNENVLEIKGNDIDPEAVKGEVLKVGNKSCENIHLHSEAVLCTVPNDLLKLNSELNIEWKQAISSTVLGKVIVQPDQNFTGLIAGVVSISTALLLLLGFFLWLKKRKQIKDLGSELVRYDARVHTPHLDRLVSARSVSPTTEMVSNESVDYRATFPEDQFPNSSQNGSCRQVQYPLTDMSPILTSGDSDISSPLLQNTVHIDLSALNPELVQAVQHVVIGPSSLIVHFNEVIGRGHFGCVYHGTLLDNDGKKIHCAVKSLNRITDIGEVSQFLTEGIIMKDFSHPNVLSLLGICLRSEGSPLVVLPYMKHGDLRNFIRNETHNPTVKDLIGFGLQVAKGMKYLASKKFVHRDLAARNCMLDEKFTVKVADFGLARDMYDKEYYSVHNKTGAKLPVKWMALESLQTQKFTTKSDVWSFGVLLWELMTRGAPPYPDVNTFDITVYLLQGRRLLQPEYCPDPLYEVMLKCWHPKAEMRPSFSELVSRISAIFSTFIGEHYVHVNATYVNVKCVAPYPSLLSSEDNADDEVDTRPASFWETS
Sequence of panel of 468 diverse kinases (Homo sapiens, UniProt Q13705) (Q13705 19-512 limits assumed): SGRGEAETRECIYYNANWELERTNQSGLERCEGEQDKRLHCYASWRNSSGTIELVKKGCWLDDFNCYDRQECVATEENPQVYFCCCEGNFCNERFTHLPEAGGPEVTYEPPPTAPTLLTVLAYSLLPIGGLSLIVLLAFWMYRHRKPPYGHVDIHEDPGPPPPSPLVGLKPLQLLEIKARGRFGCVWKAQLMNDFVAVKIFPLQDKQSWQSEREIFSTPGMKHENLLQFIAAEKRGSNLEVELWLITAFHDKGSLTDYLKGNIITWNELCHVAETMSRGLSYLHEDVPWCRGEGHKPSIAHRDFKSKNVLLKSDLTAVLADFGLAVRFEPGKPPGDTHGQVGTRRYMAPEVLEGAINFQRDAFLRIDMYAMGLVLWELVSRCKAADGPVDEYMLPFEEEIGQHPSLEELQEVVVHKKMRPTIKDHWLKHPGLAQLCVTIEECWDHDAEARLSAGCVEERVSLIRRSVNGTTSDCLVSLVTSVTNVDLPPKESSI

COc1cc2nc(NC3CC3)nc(NC3CCN(C(C)C)CC3)c2cc1OC [Formula IV]
remaining activity at 1 µM [1]: 97% | remaining activity at 1 µM [2]: 63% | remaining activity at 1 µM [3]: 33% | remaining activity at 1 µM ([4]; RPS6KA5(Kin.Dom.1-N-terminal)): 75% | remaining activity at 1 µM ([4]; RPS6KA5(Kin.Dom.2-C-terminal)): 100% | remaining activity at 1 µM [5]: 52% | remaining activity at 1 µM [6]: 91% | remaining activity at 1 µM ([7]; ABL1(T315I)-nonphosphorylated): 100% | remaining activity at 1 µM ([7]; ABL1(T315I)-phosphorylated): 49% | remaining activity at 1 µM [8]: 97% | remaining activity at 1 µM [9]: 99% | remaining activity at 1 µM [10]: 96% | remaining activity at 1 µM [11]: 86% | remaining activity at 1 µM [12]: 95% | remaining activity at 1 µM [13]: 100% | remaining activity at 1 µM [14]: 100% | remaining activity at 1 µM [15]: 100% | remaining activity at 1 µM [16]: 93% | remaining activity at 1 µM [17]: 85% | remaining activity at 1 µM [18]: 98% | remaining activity at 1 µM [19]: 83% | remaining activity at 1 µM [20]: 100% | remaining activity at 1 µM [21]: 100% | remaining activity at 1 µM [22]: 99% | remaining activity at 1 µM [23]: 87% | remaining activity at 1 µM [24]: 76% | remaining activity at 1 µM [25]: 66% | remaining activity at 1 µM [26]: 54% | remaining activity at 1 µM [27]: 97% | remaining activity at 1 µM [28]: 95% | remaining activity at 1 µM [29]: 100% | remaining activity at 1 µM [30]: 61% | remaining activity at 1 µM [31]: 56%
